In patent US20250304576A1 (Cancer Research Technology Limited, priority 2022, published 2025):

Target: T1, CHUK (IKK alpha) (Homo sapiens, UniProt O15111)
T1 construct: purchased Life Technologies (assay performed by the vendor)
T1 sequence (O15111 1-745): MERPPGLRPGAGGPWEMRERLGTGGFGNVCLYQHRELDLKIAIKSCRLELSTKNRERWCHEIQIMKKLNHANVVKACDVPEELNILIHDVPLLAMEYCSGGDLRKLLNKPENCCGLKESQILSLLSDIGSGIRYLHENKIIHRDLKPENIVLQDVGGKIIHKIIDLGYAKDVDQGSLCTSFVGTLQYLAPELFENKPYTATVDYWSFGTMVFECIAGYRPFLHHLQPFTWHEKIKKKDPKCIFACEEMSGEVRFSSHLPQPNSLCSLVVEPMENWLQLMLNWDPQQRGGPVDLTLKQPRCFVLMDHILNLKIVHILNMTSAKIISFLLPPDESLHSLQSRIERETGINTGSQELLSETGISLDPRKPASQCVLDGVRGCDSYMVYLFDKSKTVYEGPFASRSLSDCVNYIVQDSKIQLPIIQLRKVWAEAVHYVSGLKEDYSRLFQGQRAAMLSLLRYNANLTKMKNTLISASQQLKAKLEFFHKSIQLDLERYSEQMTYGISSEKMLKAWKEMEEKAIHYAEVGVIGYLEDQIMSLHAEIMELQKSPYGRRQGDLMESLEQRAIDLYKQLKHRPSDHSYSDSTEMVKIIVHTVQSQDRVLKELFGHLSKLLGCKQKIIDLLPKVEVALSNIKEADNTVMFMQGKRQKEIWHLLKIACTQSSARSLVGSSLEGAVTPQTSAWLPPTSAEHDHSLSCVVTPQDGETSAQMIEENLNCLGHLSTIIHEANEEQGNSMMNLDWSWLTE
Test: Adapta IKKα assay (TR-FRET ADP formation, Life Technologies)
Format: biochemical
Method: IKKα and IKKβ inhibitory activity was determined using three different assays: a dissociation enhanced ligand fluorescent immunoassay (DELFIA) based on the protocol of HTScan™ IKKβ Kinase Assay (Cell Signaling Technology, USA); an Adapta IKKα assay (performed by Life Technologies); a Z′-LYTE™ IKKβ assay (performed by Life Technologies).
The reaction was performed in low-volume white 384-well plates (Corning model 4512).
The test compounds were screened in 1% DMSO (final) in the well. For 10 point titrations, 3-fold serial dilutions were conducted from the starting concentration of 50 mM.
The 2× CHUK (IKK alpha) kinase was prepared in 50 mM HEPES pH 7.5, 0.01% BRIJ-35, 10 mM MgCl2 and 1 mM EGTA. The final 10 μL kinase mixture consisted of 50-250 ng CHUK (IKK alpha) in 32.5 mM HEPES pH 7.5, 0.005% BRIJ-35, 5 mM MgCl2 and 0.5 mM EGTA. No substrate was required, as the assay measures the ability of a compound to inhibit the kinase's intrinsic ATPase activity.
5 μL of 2× Kinase mixture was incubated with 2.5 μL of ATP solution diluted to a 4×working concentration in water, in the presence of 100 nL of 100× test compound in 100% DMSO and 2.4 μL of 30 mM HEPES buffer.
After 30-second plate shake and 1-minute centrifuge at 1000×g, the resulting kinase reaction was allowed to incubate for 1 hour at room temperature before 5 μL of Detection Mix was added.
The Detection Mix, previously prepared in TR-FRET Dilution Buffer, consisted of EDTA (30 mM), Eu-anti-ADP antibody (6 nM) and an Alexa Fluor™ 647 labelled ADP tracer. The Detection Mix contained the EC60 concentration of tracer for 5-150 μM ATP.
After 30-second plate shake and 1-minute centrifuge at 1000×g, the Detection Mix was allowed to equilibrate at room temperature for 1 hour. Then the plate was read using a fluorescence plate reader configured for Adapta™ TR-FRET and the data analysed.
ADP formation was determined by calculating the emission ratio from the assay well. Therefore, the emission ratio was calculated by dividing the intensity of the tracer (acceptor) emission by the intensity of the Eu (donor) emission at 615 nm as shown in the equation below.
The IKKα and IKKb figures quoted in italicised form are from the Adapta assay described above.

[1] = Adapta assay (second line of an example)

Row | IC50 (Adapta assay) [nM] | IC50 [1] [nM] | SMILES
1 | 1 | – | Nc1nccc(-c2ccc3[nH]nc(N)c3c2)c1C#Cc1ccccc1 [Example 75, 5-(2-Amino-3-(phenylethynyl)pyridine-4-yl)-1H-indazol-3-amine]
2 | – | 11 | CC(C)(C)C#Cc1cc(-c2ccnc3[nH]ccc23)cc2c(N)n[nH]c12 [Example 201, 7-(3,3-Dimethylbut-1-yn-1-yl)-5-(1H-pyrrolo[2,3-b]pyridin-4-yl)-1H-indazol-3-amine]
3 | – | 2 | Nc1n[nH]c2ccc(-c3ccnc4[nH]c(CN5CCOCC5)cc34)cc12 [Example 262, 5-(2-(Morpholinomethyl)-1H-pyrrolo[2,3-b]pyridine-4-yl)-1H-indazol-3-amine]
4 | – | 13 | Nc1n[nH]c2ccc(-c3ccnc4[nH]c(CN5CCCCCC5)cc34)cc12 [Example 265, 5-(2-(Azepan-1-ylmethyl)-1H-pyrrolo[2,3-b]pyridine-4-yl)-1H-indazol-3-amine]
5 | – | 8 | Nc1n[nH]c2ccc(-c3ccnc4[nH]c(CC5CCCCC5)cc34)cc12 [Example 221, 5-(2-(Cyclohexylmethyl)-1H-pyrrolo[2,3-b]pyridin-4-yl)-1H-indazol-3-amine]
6 | 1 | – | CC(C)(C)C#Cc1c(-c2ccc3[nH]nc(N)c3c2)ccnc1N [Example 72, 5-(2-Amino-3-(3,3-dimethylbut-1-yn-1-yl)pyridine-4-yl)-1H-indazol-3-amine]
7 | – | 16 | Nc1n[nH]c2c(C#CC3CCCC3)cc(-c3ccnc4[nH]ccc34)cc12 [Example 203, 7-(Cyclopentylethynyl)-5-(1H-pyrrolo[2,3-b]pyridin-4-yl)-1H-indazol-3-amine]
8 | – | 1 | Nc1n[nH]c2ccc(-c3ccnc4[nH]c(CCN5CCOCC5)cc34)cc12 [Example 268, 5-(2-(2-Morpholinoethyl)-1H-pyrrolo[2,3-b]pyridin-4-yl)-1H-indazol-3-amine]
9 | – | 1 | Nc1n[nH]c2ccc(-c3ccnc4[nH]c(CCCN5CCOCC5)cc34)cc12 [Example 271, 5-(2-(3-Morpholinopropyl)-1H-pyrrolo[2,3-b]pyridin-4-yl)-1H-indazlo-3-amine]
10 | – | 14 | CN1CCN(Cc2cc3c(-c4ccc5[nH]nc(N)c5c4)ccnc3[nH]2)CC1 [Example 263, 5-(2-((4-Methylpiperazin-1-yl)methyl)-1H-pyrrolo[2,3-b]pyridine-4-yl)-1H-indazol-3-amine]
11 | – | 1 | Nc1n[nH]c2ccc(-c3ccnc4[nH]c(C5CCCCO5)cc34)cc12 (stereo not shown) [Example 229, 5-(2-(Tetrahydro-2H-pyran-2-yl)-1H-pyrrolo[2,3-b]pyridin-4-yl)-1H-indazol-3-amine]
12 | 6 | – | CC(C)(N)C#Cc1c(-c2ccc3[nH]nc(N)c3c2)ccnc1N [Example 92, 5-(2-Amino-3-(3-amino-3-methylbut-1-yn-1-yl)pyridin-4-yl)-1H-indazol-3-amine]
13 | – | 198 | Nc1n[nH]c2c(C#CC3CCCCC3)cc(-c3ccnc4[nH]ccc34)cc12 [Example 204, 7-(Cyclohexylethynyl)-5-(1H-pyrrolo[2,3-b]pyridin-4-yl)-1H-indazol-3-amine]
14 | 4 | – | CC(C)(O)C#Cc1c(-c2ccc3[nH]nc(N)c3c2)ccnc1N [Example 87, 4-(2-Amino-4-(3-amino-1H-indazol-5-yl)pyridine-3-yl)-2-methylbut-3-yn-2-ol]
15 | 1 | – | Nc1nccc(-c2ccc3[nH]nc(N)c3c2)c1C#CCCO [Example 84, 4-(2-Amino-4-(3-amino-1H-indazol-5-yl)pyridine-3-yl)but-3-yn-1-ol]
16 | 12 | – | Nc1nccc(-c2ccc3[nH]nc(N)c3c2)c1C#CCCCN1CCCCC1 [Example 95, 5-(2-Amino-3-(5-(piperidin-1-yl)pent-1-yn-1-yl)pyridin-4-yl)-1H-indazol-3-amine]
17 | – | 32 | CC(C)N(C)Cc1cc2c(-c3ccc4[nH]nc(N)c4c3)ccnc2[nH]1 [Example 259, 5-(2-((Isopropyl(methyl)amino)methyl)-1H-pyrrolo[2,3-b]pyridine-4-yl)-1H-indazol-3-amine]
18 | – | 41 | Nc1n[nH]c2ccc(-c3ccnc4[nH]c(C5CCCCN5)cc34)cc12 (stereo not shown) [Example 250, 5-(2-(Piperidin-2-yl)-1H-pyrrolo[2,3-b]pyridine-4-yl)-1H-indazol-3-amine]
19 | – | 14 | Nc1n[nH]c2ccc(-c3ccnc4[nH]c(C5CCCCC5)cc34)cc12 [Example 219, 5-(2-Cyclohexyl-1H-pyrrolo[2,3-b]pyridin-4-yl)-1H-indazol-3-amine]
20 | – | 1 | Nc1n[nH]c2ccc(-c3ccnc4[nH]c(CO)cc34)cc12 [Example 224]
21 | – | 12 | Nc1n[nH]c2c(C#CCCCN3CCCCC3)cc(-c3ccnc4[nH]ccc34)cc12 [Example 212, 7-(5-(Piperidin-1-yl)pent-1-yn-1-yl)-5-(1H-pyrrolo[2,3-b]pyridin-4-yl)-1H-indazol-3-amine]
22 | – | 2 | Nc1n[nH]c2c(C#CC3CC3)cc(-c3ccnc4[nH]ccc34)cc12 [Example 202, 7-(Cyclopropylethynyl)-5-(1H-pyrrolo[2,3-b]pyridin-4-yl)-1H-indazol-3-amine]
23 | – | 1 | Nc1n[nH]c2ccc(-c3ccnc4[nH]c(CC5CCNCC5)cc34)cc12 [Example 272, 5-(2-(Piperidin-4-ylmethyl)-1H-pyrrolo[2,3-b]pyridin-4-yl)-1H-indazol-3-amine]
24 | 2 | – | Nc1nccc(-c2ccc3[nH]nc(N)c3c2)c1C#CC1CCCC1 [Example 73, 5-(2-Amino-3-(cyclopentylethynyl)pyridine-4-yl)-1H-indazol-3-amine]

Row | SMILES | IC50 (Adapta assay) [nM] | IC50 [1] [nM]
25 | CC(C)(C)OCc1cc2c(-c3ccc4[nH]nc(N)c4c3)ccnc2[nH]1 [Example 227, 5-(2-(tert-Butoxymethyl)-1H-pyrrolo[2,3-b]pyridin-4-yl)-1H-indazol-3-amine] | – | 2
